Experiment: recombinant barcode read abundance after kanamycin selection (control-corrected) (log10(CPM+1)); higher = more efficient recombination; sequences stand for … in AGTGCAGAGAAAATCGGCCAGTTTTCTCTGCCTGCAGTCCGCATGCCGT…AGATTTATGCAGCGGACTGCCTTTCTCCCAAAGTGATAAACCGGACAGTATCATGGACCGGTTTTCCCGGTAATCCGTATTTGCAAGGTTGGTTTCACT; site = the 11-nt target
In short: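 Values are log10(CPM+1) from a pooled E. coli screen of targets paired with IS621 bridge RNA target-binding loops. Recombination efficiency here means counts per million of recombinant-junction barcodes, averaged and control-corrected. Plates were chloramphenicol/ampicillin LB agar for the control and chloramphenicol/ampicillin/kanamycin with 0.1 mM IPTG, two replicates each.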
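Further: IS621 recombinase and bridge RNA in Escherichia coli cells.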

Sequence	recombinant barcode read abundance (log10)
GTCGTAGCTTGGGTTCTAACCTGTTGCTA (site GTCGAACCTTA)	0.139
GTCGTAGCTTGGGTTCTAACCTGTTGCTA (site GTCGTAGCTTA)	0.353
GTCGTCGCTTGGGTTCTAACCTGTTGCCT (site GTCGTCACTAG)	0.136
GTCGTCGCTTGGGTTCTAACCTGTTGCCT (site GTCGTCCCTAG)	0.0726
GTCGTCGCTTGGGTTCTAACCTGTTGCCT (site GTCGTCGCTAG)	0.376
GTCGTCGCTTGGGTTCTAACCTGTTGCCT (site GTCGTCTCTAG)	0.0427
GTCTAAGCTTGGGTTCTAACCTGTTGCCG (site GTCTAAGCTCG)	0.59
GTCTAAGCTTGGGTTCTAACCTGTTGCCG (site GTCTACGCTTG)	0.0178
GTCTAAGCTTGGGTTCTAACCTGTTGCTT (site GTCTAAGCTAA)	0.0172
GTCTAAGCTTGGGTTCTAACCTGTTGCTT (site GTCTATGCTAC)	0.295
GTCTAATCTTGGGTTCTAACCTGTTGCAT (site ACAGGTCCTCG)	0.0725
GTCTAATCTTGGGTTCTAACCTGTTGCAT (site GTCTAATCTAT)	1.02
GTCTCGTCTTGGGTTCTAACCTGTTGCTT (site GTCTCGTCTAA)	0.246
GTCTCGTCTTGGGTTCTAACCTGTTGCTT (site GTCTCTTCTTA)	0.0559
GTCTGAGCTTGGGTTCTAACCTGTTGCCT (site GTCTAAGCTAG)	0.241
GTCTGAGCTTGGGTTCTAACCTGTTGCCT (site GTCTGAGCTAG)	0.355
GTCTTATCTTGGGTTCTAACCTGTTGCCT (site GTCTAATCTAG)	0.0535
GTCTTATCTTGGGTTCTAACCTGTTGCCT (site GTCTCATCTAG)	0.0374
GTCTTATCTTGGGTTCTAACCTGTTGCCT (site GTCTGATCTAG)	0.24
GTCTTATCTTGGGTTCTAACCTGTTGCCT (site GTCTTATCTAG)	1.14
GTCTTGACTTGGGTTCTAACCTGTTGCCA (site GTCTTAACTCG)	0.0812
GTCTTGACTTGGGTTCTAACCTGTTGCCA (site GTCTTGACTTG)	0.102

Sequence	recombinant barcode read abundance (log10)
GTGAAAGCTTGGGTTCTAACCTGTTGCCA (site GTGAAAGCTTG)	0.73
GTGAAAGCTTGGGTTCTAACCTGTTGCCA (site GTGGAAGCTTG)	0.0113
GTGAACCCTTGGGTTCTAACCTGTTGCAA (site GTGAACCCTTT)	1.66
GTGAACCCTTGGGTTCTAACCTGTTGCAA (site TCCGGAGCTCG)	0.103
GTGAACCCTTGGGTTCTAACCTGTTGCAG (site GTGAACCCTCT)	2.11
GTGAACCCTTGGGTTCTAACCTGTTGCAG (site GTGATCCCTCT)	0.0104
GTGAAGACTTGGGTTCTAACCTGTTGCTT (site AACGTACCTCT)	0.125
GTGAAGACTTGGGTTCTAACCTGTTGCTT (site GTGAAGACTAA)	1.41
GTGACCTCTTGGGTTCTAACCTGTTGCCT (site GCTACCTCTAG)	0.0896
GTGACCTCTTGGGTTCTAACCTGTTGCCT (site GTGACCTCTAG)	1.49
GTGAGAACTTGGGTTCTAACCTGTTGCCA (site CGTGACCCTCC)	0.0895
GTGAGAACTTGGGTTCTAACCTGTTGCCA (site GTGAGAACTTG)	0.588
GTGAGCACTTGGGTTCTAACCTGTTGCGG (site GTGAGAGCTCC)	0.0559
GTGAGCACTTGGGTTCTAACCTGTTGCGG (site GTGAGCACTCC)	1.84
GTGAGGACTTGGGTTCTAACCTGTTGCCA (site GTAACGACTTG)	0.252
GTGAGGACTTGGGTTCTAACCTGTTGCCA (site GTGAGGACTTG)	1.53
GTGAGGTCTTGGGTTCTAACCTGTTGCTT (site GTGAGGTCTAA)	2.01
GTGAGGTCTTGGGTTCTAACCTGTTGCTT (site GTGAGGTCTAC)	0.229
GTGAGGTCTTGGGTTCTAACCTGTTGCTT (site GTGAGGTCTAG)	1.46
GTGAGGTCTTGGGTTCTAACCTGTTGCTT (site GTGAGGTCTAT)	1.38
GTGAGTGCTTGGGTTCTAACCTGTTGCCA (site ATAAGTGCTTG)	0.475
GTGAGTGCTTGGGTTCTAACCTGTTGCCA (site GTGAGTGCTTG)	0.723

Sequence	recombinant barcode read abundance (log10)
GTGATCCCTTGGGTTCTAACCTGTTGCAG (site GTGAACCCTCT)	0.184
GTGATCCCTTGGGTTCTAACCTGTTGCAG (site GTGATCCCTCT)	1.79
GTGCAACCTTGGGTTCTAACCTGTTGCCT (site AGTGTCACTCC)	0.056
GTGCAACCTTGGGTTCTAACCTGTTGCCT (site GTGCAACCTAG)	1.34
GTGCACACTTGGGTTCTAACCTGTTGCCA (site GTGCAAACTAG)	0.0839
GTGCACACTTGGGTTCTAACCTGTTGCCA (site GTGCACACTTG)	0.736
GTGCCCGCTTGGGTTCTAACCTGTTGCAG (site AAATGACCTAC)	0.0527
GTGCCCGCTTGGGTTCTAACCTGTTGCAG (site GTGCCCGCTCT)	0.961
GTGCCCTCTTGGGTTCTAACCTGTTGCCG (site GTGCCCGCTCC)	0.0127
GTGCCCTCTTGGGTTCTAACCTGTTGCCG (site GTGCCCTCTCG)	1.66
GTGCCTCCTTGGGTTCTAACCTGTTGCTT (site GTGCCTCCTAA)	1.01
GTGCCTCCTTGGGTTCTAACCTGTTGCTT (site GTGTATCCTAA)	0.0505
GTGCGCTCTTGGGTTCTAACCTGTTGCCG (site GTGAGCCCTCG)	0.076
GTGCGCTCTTGGGTTCTAACCTGTTGCCG (site GTGCGCTCTCG)	1.49
GTGCGGACTTGGGTTCTAACCTGTTGCGT (site GTGAGGACTAC)	0.676
GTGCGGACTTGGGTTCTAACCTGTTGCGT (site GTGCGGACTAC)	2.06
GTGCTCGCTTGGGTTCTAACCTGTTGCCT (site CTGCCCGCTAG)	0.0812
GTGCTCGCTTGGGTTCTAACCTGTTGCCT (site GTGCTCGCTAG)	1.87
GTGGAATCTTGGGTTCTAACCTGTTGCCT (site GTGAGATCTAG)	0.307
GTGGAATCTTGGGTTCTAACCTGTTGCCT (site GTGGAATCTAG)	1.6
GTGGACTCTTGGGTTCTAACCTGTTGCTA (site GTGGACTCTTA)	2.44
GTGGACTCTTGGGTTCTAACCTGTTGCTA (site GTGTACTCTAA)	0.0609

Sequence	recombinant barcode read abundance (log10)
GTGGCCACTTGGGTTCTAACCTGTTGCCT (site GTAGCCACTAG)	1.86
GTGGCCACTTGGGTTCTAACCTGTTGCCT (site GTCGCCACTAG)	0.152
GTGGCCACTTGGGTTCTAACCTGTTGCCT (site GTGGCCACTAG)	1.74
GTGGCCACTTGGGTTCTAACCTGTTGCCT (site GTTGCCACTAG)	0.229
GTGGGCACTTGGGTTCTAACCTGTTGCCT (site AGAAAGGCTGC)	0.166
GTGGGCACTTGGGTTCTAACCTGTTGCCT (site GTGGGCACTAG)	0.225
GTGGTATCTTGGGTTCTAACCTGTTGCCT (site GTGGTAACTAG)	0.268
GTGGTATCTTGGGTTCTAACCTGTTGCCT (site GTGGTACCTAG)	0.396
GTGGTATCTTGGGTTCTAACCTGTTGCCT (site GTGGTAGCTAG)	0.312
GTGGTATCTTGGGTTCTAACCTGTTGCCT (site GTGGTATCTAG)	1.68
GTGTACCCTTGGGTTCTAACCTGTTGCAC (site AGTATAACTCA)	0.132
GTGTACCCTTGGGTTCTAACCTGTTGCAC (site GTGTACCCTGT)	2.35
GTGTACCCTTGGGTTCTAACCTGTTGCGA (site GTGTACCCTAC)	0.129
GTGTACCCTTGGGTTCTAACCTGTTGCGA (site GTGTACCCTCC)	0.0447
GTGTACCCTTGGGTTCTAACCTGTTGCGA (site GTGTACCCTGC)	0.0937
GTGTACCCTTGGGTTCTAACCTGTTGCGA (site GTGTACCCTTC)	2.35
GTGTATACTTGGGTTCTAACCTGTTGCCT (site GTATATACTAG)	1.12
GTGTATACTTGGGTTCTAACCTGTTGCCT (site GTCTATACTAG)	0.173
GTGTATACTTGGGTTCTAACCTGTTGCCT (site GTGTATACTAG)	1.24
GTGTATACTTGGGTTCTAACCTGTTGCCT (site GTTTATACTAG)	0.075

Reference: the supplement of paper PMC11208160
